Where a name gives a salt, the structure may show the parent alone. Read-outs that look alike come from different tables or passages of the source.
What was measured:
L929sAhFas [1] = experiment: cells; set-up: high-content necroptosis screen, percentage PI-positive nuclei as percent of DMSO plus stimulus control
Source text: To identify novel inhibitors or regulators of necroptosis, 500 small compounds from libraries targeting autophagy, kinases, phosphatases, proteases and redox balance were screened for their ability to block TNF-induced necroptosis in murine L929sAhFas cells. Three conditions were used to induce necroptosis in L929 cells: TNF alone, TNF+TAK1 inhibitor (TAK1i) and TNF+zVAD-fmk, a pan-caspase inhibitor. Inhibition of TAK1 or caspases sensitizes to necroptosis.[13], [32] Necroptosis, measured as the percentage of PI-positive nuclei normalized to the plate-specific DMSO control, was determined for each compound (Supplementary Figure 1A). […] After compound treatment, L929sAhFas (a) or L929 (b) cells were stimulated with mTNF (T), mTNF+Tak1i (TiT) or mTNF+zVAD (zVT) (Supplementary Figure 1A and B). (a) Cell death percentage (% PI-positive nuclei) or cell loss was calculated as percent of control (DMSO+stimulus). […] (b) Cell loss (luminescence-based readout for ATP) was calculated as percent of control (DMSO+stimulus). […] In stimulated conditions, % PI-positive nuclei was determined as % of DMSO control. Data represent mean values±S.E.M. of two independent experiments. Cells were stained with Hoechst and PI and percentage PI-positive nuclei was determined using high-content image analysis (BD pathway Bioimager). (d) L929sAhFas cells were treated with Sorafenib (concentration as indicated) for 24 h. Then, stimulus was removed, 50 cells/condition seeded and colonies counted with crystal violet staining after 10 days incubation. […] Schemes of workflow screening assays in L929 cell lines. (A) Scheme of the workflow of a high-content screening assay on L929sAhFas cells using mTNF (T) and mTNF+Tak1i ((5Z)-7-Oxozeaenol) (TiT) to induce necroptotic cell death. Nec-1 and zVAD-fmk were used as protective and sensitizing benchmarks, respectively, on all plates. (B) Scheme of the workflow of a CellTiter-Glo luminescent cell viability screening assay on L929 cells using mTNF+zVAD (zVT) to induce necroptotic cell death. Supplementary Figure S2. Z’ calculation for cell death screening assays in L929 cells. (A) Z’ calculation for cell death screening assay (Fig. 1A) in mTNF-stimulated L929sAhFas cells. (B) Z’ calculation for cell death screening assay (Fig. 1A) in L929sAhFas cells stimulated with mTNF + Taki.

L929sAhFas [2] = experiment: cells; set-up: high-content necroptosis screen, percentage PI-positive nuclei as percent of DMSO plus stimulus control; conditions: mTNF-induced cell death, validation screen; read-out: Validation screen IC50 (µM) (TNF)
Source text: To identify novel inhibitors or regulators of necroptosis, 500 small compounds from libraries targeting autophagy, kinases, phosphatases, proteases and redox balance were screened for their ability to block TNF-induced necroptosis in murine L929sAhFas cells. Three conditions were used to induce necroptosis in L929 cells: TNF alone, TNF+TAK1 inhibitor (TAK1i) and TNF+zVAD-fmk, a pan-caspase inhibitor. Inhibition of TAK1 or caspases sensitizes to necroptosis.[13], [32] Necroptosis, measured as the percentage of PI-positive nuclei normalized to the plate-specific DMSO control, was determined for each compound (Supplementary Figure 1A). Z’ values for the TNF- and TNF+TAK1i-induced cell death assay were 0.498 and 0.919, respectively (Supplementary Figures 2A and B), indicating good assay performance. Sorafenib was identified as an effective inhibitor of both TNF- and TNF+TAK1i-induced necroptosis (Figure 1a). […] In an independent screening with 437 FDA-approved drugs and TNF+zVAD-fmk as necroptosis trigger in L929 cells (Supplementary Figure 1B), Sorafenib was also shown to be a potent inhibitor (Figure 1b). […] After compound treatment, L929sAhFas (a) or L929 (b) cells were stimulated with mTNF (T), mTNF+Tak1i (TiT) or mTNF+zVAD (zVT) (Supplementary Figure 1A and B). (a) Cell death percentage (% PI-positive nuclei) or cell loss was calculated as percent of control (DMSO+stimulus). Green points marked by the green dotted line represent a selection of kinase inhibitors from the screening on L929sAhFas cells (Supplementary Table 1), that are only slightly protective in the TNF-stimulated condition. (b) Cell loss (luminescence-based readout for ATP) was calculated as percent of control (DMSO+stimulus). […] In stimulated conditions, % PI-positive nuclei was determined as % of DMSO control. Data represent mean values±S.E.M. of two independent experiments. Cells were stained with Hoechst and PI and percentage PI-positive nuclei was determined using high-content image analysis (BD pathway Bioimager). (d) L929sAhFas cells were treated with Sorafenib (concentration as indicated) for 24 h. Then, stimulus was removed, 50 cells/condition seeded and colonies counted with crystal violet staining after 10 days incubation. Quantification was performed using ImageJ. n=2, a representative experiment is shown Legends supplementary figures Supplementary Figure S1. Schemes of workflow screening assays in L929 cell lines. (A) Scheme of the workflow of a high-content screening assay on L929sAhFas cells using mTNF (T) and mTNF+Tak1i ((5Z)-7-Oxozeaenol) (TiT) to induce necroptotic cell death. Nec-1 and zVAD-fmk were used as protective and sensitizing benchmarks, respectively, on all plates. (B) Scheme of the workflow of a CellTiter-Glo luminescent cell viability screening assay on L929 cells using mTNF+zVAD (zVT) to induce necroptotic cell death. Supplementary Figure S2. Z’ calculation for cell death screening assays in L929 cells. (A) Z’ calculation for cell death screening assay (Fig. 1A) in mTNF-stimulated L929sAhFas cells. (B) Z’ calculation for cell death screening assay (Fig. 1A) in L929sAhFas cells stimulated with mTNF + Taki.

[3] = read-out: cell death TNF/Taki (POC)

SMILES | activity at 10 µM (L929sAhFas [1]; read-out: cell death TNF (POC)) [%] | activity at 10 µM (L929sAhFas [1]; [3]) [%] | IC50 (L929sAhFas [2]) [µM]
Cn1cnc(N)c2ncnc1-2 [3-Methyladenine] | 88.7 | 102 | –
Nc1ncnc2c1c(I)cn2[C@@H]1O[C@H](CO)[C@@H](O)[C@H]1O [5-Iodotubercidin] | 229 | 101 | –
N#CC(C#N)=Cc1ccc([N+](=O)[O-])c(O)c1 [AG-126] | 94.7 | 99.4 | –
N#CC(=Cc1ccc2[nH]ccc2c1)C(N)=C(C#N)C#N [AG-370] | 86 | 99.7 | –
N#C/C(=C\c1ccc(O)c(O)c1)C(=O)NCc1ccccc1 [AG-490] | 74.2 | 97.3 | 87.3
N#C/C(=C\c1ccc(O)c(O)c1)C(=O)Nc1ccccc1 [AG-494] | 58.6 | 95.8 | 32.3
COc1cc(/C=C(\C#N)C(N)=O)cc(CSc2nc3ccccc3s2)c1O [AG-825] | 80.1 | 99.4 | –
O=C(O)c1ccc2nc(-c3ccccc3)c(-c3ccccc3)nc2c1 [BML-257] | 91.3 | 99.7 | –
C#Cc1cccc(Nc2ncnc3cc(OC)c(OC)cc23)c1 [BML-265] | 118 | 99.6 | –
O=C1Nc2ccc(I)cc2/C1=C/c1cc(Br)c(O)c(Br)c1 [GW 5074] | 90 | 99.1 | –
O=c1c(-c2ccc(O)cc2)coc2cc(O)cc(O)c12 [Genistein] | 86.1 | 99.3 | –
O=P(O)(O)C(O)c1ccc2ccccc2c1 (centres unmarked) [HNMPA] | 80.3 | 100 | –
Cc1ccc(NC(=O)c2ccc(CN3CCN(C)CC3)cc2)cc1Nc1nccc(-c2cccnc2)n1 [Imatinib mesylate] | 63.9 | 96.1 | –
O=C1Nc2ccccc2/C1=C1/Nc2ccccc2C1=O [Indirubin] | 91.7 | 99.1 | –
O=C1Cc2c([nH]c3ccc(Br)cc23)-c2ccccc2N1 [Kenpaullone] | 162 | 99.9 | –
C/C(O)=C(\C#N)C(=O)Nc1cc(Br)ccc1Br [LFM-A13] | 93.5 | 100 | –
O=c1cc(N2CCOCC2)oc2c(-c3ccccc3)cccc12 [LY 294002] | 85.7 | 99.2 | –
O=C(O)c1cc(N(Cc2ccccc2O)Cc2cc(O)ccc2O)ccc1O [Lavendustin A] | 85.9 | 100 | –
O=S(=O)(c1cccc2c(I)cccc12)N1CCCNCC1 [ML-7·HCl] | 90.2 | 99.4 | –
O=S(=O)(c1cccc2c(Cl)cccc12)N1CCCNCC1 [ML-9·HCl] | 84.8 | 99.8 | –
COc1cccc(-c2cc(=O)c3ccccc3o2)c1N [PD-98059] | 70.9 | 98.9 | –
Cc1ccc(-c2nn(C(C)(C)C)c3ncnc(N)c23)cc1 [PP1] | 114 | 100 | –
CC(C)(C)n1nc(-c2ccc(Cl)cc2)c2c(N)ncnc21 [PP2] | 127 | 100 | –

SMILES | activity at 10 µM (L929sAhFas [1]; read-out: cell death TNF (POC)) [%] | activity at 10 µM (L929sAhFas [1]; [3]) [%] | IC50 (L929sAhFas [2]) [µM]
O=c1c(O)c(-c2ccc(O)c(O)c2)oc2cc(O)cc(O)c12 [Quercetin·2H2O] | 90.4 | 98.5 | –
N#C/C(=C\c1cc(Cl)cc(Cl)c1)c1cccnc1 [RG-14620] | 95.9 | 99.8 | –
c1ccc2c(-c3ccncc3)c[nH]c2c1 [Rockout] | 106 | 99 | –
Oc1ccc(-c2nc(-c3ccc(F)cc3)c(-c3ccncc3)[nH]2)cc1 [SB-202190] | 110 | 96.3 | –
C[S+]([O-])c1ccc(-c2nc(-c3ccc(F)cc3)c(-c3ccncc3)[nH]2)cc1 (centres unmarked) [SB-203580] | 108 | 99.6 | –
CC(C)c1cc(/C=C(\C#N)C(=O)NCCCc2ccccc2)cc(C(C)C)c1O [SU1498] | 91.7 | 99.2 | –
CCN(CC)CCNC(=O)c1c(C)[nH]c(/C=C2\C(=O)Nc3ccc(Cl)cc32)c1C [SU11652] | 194 | 104 | –
N#CC(C#N)=Cc1ccc(O)c(O)c1 [TYRPHOSTIN 23] | 88.9 | 100 | –
N#CC(C#N)=Cc1cc(O)c(O)c(O)c1 [TYRPHOSTIN 25] | 90 | 100 | –
N#C/C(=C\c1ccc(O)c(O)c1)C(N)=O [TYRPHOSTIN 46] | 97.8 | 99.8 | –
N#C/C(=C\c1ccc(O)c(O)c1)C(N)=S [TYRPHOSTIN 47] | 93 | 100 | –
N#CC(C#N)=C(N)/C(C#N)=C/c1cc(O)c(O)c(O)c1 [TYRPHOSTIN 51] | 116 | 101 | –
N#CC(C#N)=Cc1cc(O)c(O)c([N+](=O)[O-])c1 [TYRPHOSTIN AG 1288] | 81.1 | 99.7 | –
Cc1cc2ncc(-c3ccccc3)nc2cc1C [TYRPHOSTIN AG 1295] | 93.6 | 100 | –
COc1cc2ncnc(Nc3cccc(Cl)c3)c2cc1OC [TYRPHOSTIN AG 1478] | 84.2 | 98.7 | –
CC1=C(O)C(=O)[C@@H]2O[C@@H]2C1=O [Terreic acid] | 104 | 99.1 | –
N#CC(C#N)=C(N)/C(C#N)=C/c1ccc(O)cc1 [Tyrphostin AG112] | 89.4 | 98.7 | –
N#CC(=C(/N)Sc1ccccc1N)/C(C#N)=C(\N)Sc1ccccc1N [U-0126] | 69.7 | 98.7 | –
COC[C@H]1OC(=O)c2coc3c2[C@@]1(C)C1=C(C3=O)[C@@H]2CCC(=O)[C@@]2(C)C[C@H]1OC(C)=O [Wortmannin] | 99.4 | 101 | –
C[C@@H](N)[C@H]1CC[C@H](C(=O)Nc2ccncc2)CC1 [Y-27632·2HCl] | 93.3 | 98.6 | –
Cc1ccc(NC(=O)c2cccc(N(C)C)c2)cc1NC(=O)c1ccc(O)cc1 [ZM 336372] | 81.9 | 99.4 | –
C=CC(=O)c1ccc2ccccc2c1 [ZM 449829] | 87.3 | 99.6 | –

From article PMC5520944 (Cell Death & Disease, 2017)
